Test results from ChEMBL document CHEMBL3352334, “Design, synthesis and pharmacological evaluation of 2-(thiazol-2-amino)-4-arylaminopyrimidines as potent anaplastic lymphoma kinase (ALK) inhibitors” (Eur J Med Chem, 2014).
Values belong to the compound of their own block, whether it stands above or below them.

Experiments:
[1] = target: T1, ALK tyrosine kinase receptor (Homo sapiens, UniProt Q9UM73); assay: Inhibition of purified ALK (unknown origin) after 60 mins by ELISA kinase assay
Target sequence in this assay (Q9UM73 whole entry): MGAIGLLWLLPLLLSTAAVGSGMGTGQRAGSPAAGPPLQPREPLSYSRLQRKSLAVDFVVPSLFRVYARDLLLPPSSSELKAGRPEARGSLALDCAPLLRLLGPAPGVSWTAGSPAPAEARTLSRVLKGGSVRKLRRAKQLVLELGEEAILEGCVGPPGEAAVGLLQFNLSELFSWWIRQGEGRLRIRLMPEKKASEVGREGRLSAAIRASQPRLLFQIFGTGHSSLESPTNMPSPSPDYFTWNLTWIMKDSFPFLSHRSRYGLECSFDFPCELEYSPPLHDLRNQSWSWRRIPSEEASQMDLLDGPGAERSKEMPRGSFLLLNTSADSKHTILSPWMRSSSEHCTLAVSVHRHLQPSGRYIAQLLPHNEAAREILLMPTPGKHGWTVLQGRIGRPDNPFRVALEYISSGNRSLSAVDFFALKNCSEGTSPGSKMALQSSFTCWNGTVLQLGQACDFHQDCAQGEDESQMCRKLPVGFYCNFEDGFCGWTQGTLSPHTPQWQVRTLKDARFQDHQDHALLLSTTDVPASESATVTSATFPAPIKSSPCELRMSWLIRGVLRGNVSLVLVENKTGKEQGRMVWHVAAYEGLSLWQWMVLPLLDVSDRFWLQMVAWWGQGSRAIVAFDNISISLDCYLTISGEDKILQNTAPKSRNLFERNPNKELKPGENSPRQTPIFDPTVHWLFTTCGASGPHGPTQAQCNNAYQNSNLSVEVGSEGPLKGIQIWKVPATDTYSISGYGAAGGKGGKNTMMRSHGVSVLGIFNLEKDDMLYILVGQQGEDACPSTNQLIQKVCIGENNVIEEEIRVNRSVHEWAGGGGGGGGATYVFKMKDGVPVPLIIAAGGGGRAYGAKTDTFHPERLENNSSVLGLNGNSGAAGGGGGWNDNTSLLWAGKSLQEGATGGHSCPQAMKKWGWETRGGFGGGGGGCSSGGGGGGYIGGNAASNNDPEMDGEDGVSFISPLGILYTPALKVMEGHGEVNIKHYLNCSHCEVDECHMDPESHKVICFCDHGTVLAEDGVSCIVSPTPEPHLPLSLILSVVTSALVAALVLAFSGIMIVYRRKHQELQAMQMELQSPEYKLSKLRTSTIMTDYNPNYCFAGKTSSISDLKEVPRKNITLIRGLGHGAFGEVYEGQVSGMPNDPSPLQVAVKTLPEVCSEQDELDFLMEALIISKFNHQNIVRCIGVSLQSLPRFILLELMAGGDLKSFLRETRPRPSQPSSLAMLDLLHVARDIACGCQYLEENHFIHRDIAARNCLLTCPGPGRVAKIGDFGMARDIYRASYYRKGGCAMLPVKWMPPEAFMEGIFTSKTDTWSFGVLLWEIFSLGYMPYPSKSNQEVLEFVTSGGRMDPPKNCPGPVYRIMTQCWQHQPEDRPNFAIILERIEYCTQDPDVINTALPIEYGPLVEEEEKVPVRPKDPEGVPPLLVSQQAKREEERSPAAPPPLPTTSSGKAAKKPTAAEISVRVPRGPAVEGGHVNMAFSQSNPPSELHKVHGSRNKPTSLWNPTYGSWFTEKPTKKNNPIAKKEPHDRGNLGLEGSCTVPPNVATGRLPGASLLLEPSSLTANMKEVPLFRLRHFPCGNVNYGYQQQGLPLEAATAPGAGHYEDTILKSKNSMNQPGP

[2] = Antiproliferative activity against human SUP-M2 cells assessed as growth inhibition at 1000 nM after 72 hrs by SRB assay; format: functional; conditions: SUP-M2, 72 h, read-out: GI
[3] = Antiproliferative activity against human SUP-M2 cells assessed as growth inhibition at 200 nM after 72 hrs by SRB assay; format: functional; conditions: SUP-M2, 72 h, read-out: GI
[4] = target: Platelet-derived growth factor receptor beta (Homo sapiens) (UniProt P09619); assay: Inhibition of purified PDGFRbeta (unknown origin) at 1 uM after 60 mins by ELISA kinase assay
[5] = target: T1, ALK tyrosine kinase receptor; assay: Inhibition of ALK-mediated AKT phosphorylation in human H3122 cells; format: cell-based
[6] = target: T1, ALK tyrosine kinase receptor; assay: Inhibition of ALK-mediated ERK phosphorylation in human H3122 cells; format: cell-based
[7] = target: Proto-oncogene tyrosine-protein kinase receptor Ret (Homo sapiens) (UniProt P07949); assay: Inhibition of purified RET (unknown origin) at 1 uM after 60 mins by ELISA kinase assay
[8] = target: Insulin-like growth factor 1 receptor (Homo sapiens) (UniProt P08069); assay: Inhibition of purified IGF1R (unknown origin) at 1 uM after 60 mins by ELISA kinase assay
[9] = target: T1, ALK tyrosine kinase receptor; assay: Inhibition of ALK-mediated STAT3 phosphorylation in human H3122 cells; format: cell-based
[10] = target: Vascular endothelial growth factor receptor 1 (Homo sapiens) (UniProt P17948); assay: Inhibition of purified Flt-1 (unknown origin) at 1 uM after 60 mins by ELISA kinase assay
[11] = target: T2, Hepatocyte growth factor receptor (Homo sapiens, UniProt P08581); assay: Inhibition of purified c-MET (unknown origin) at 1 uM after 60 mins by ELISA kinase assay
[12] = target: Receptor tyrosine-protein kinase erbB-2 (Homo sapiens) (UniProt P04626); assay: Inhibition of purified ErbB2 (unknown origin) at 1 uM after 60 mins by ELISA kinase assay
[13] = target: Fibroblast growth factor receptor 1 (Homo sapiens) (UniProt P11362); assay: Inhibition of purified FGFR1 (unknown origin) at 1 uM after 60 mins by ELISA kinase assay
[14] = target: Vascular endothelial growth factor receptor 2 (Homo sapiens) (UniProt P35968); assay: Inhibition of purified KDR (unknown origin) at 1 uM after 60 mins by ELISA kinase assay
[15] = target: Vascular endothelial growth factor receptor 2 (Homo sapiens) (UniProt P35968); assay: Inhibition of purified KDR (unknown origin) at 0.1 uM after 60 mins by ELISA kinase assay
[16] = target: Proto-oncogene tyrosine-protein kinase Src (Homo sapiens) (UniProt P12931); assay: Inhibition of purified c-Src (unknown origin) at 1 uM after 60 mins by ELISA kinase assay
[17] = target: Epidermal growth factor receptor (Homo sapiens) (UniProt P00533); assay: Inhibition of purified EGFR (unknown origin) at 1 uM after 60 mins by ELISA kinase assay
[18] = target: Fibroblast growth factor receptor 1 (Homo sapiens) (UniProt P11362); assay: Inhibition of purified FGFR1 (unknown origin) at 0.1 uM after 60 mins by ELISA kinase assay
[19] = target: Insulin-like growth factor 1 receptor (Homo sapiens) (UniProt P08069); assay: Inhibition of purified IGF1R (unknown origin) at 0.1 uM after 60 mins by ELISA kinase assay
[20] = target: ALK tyrosine kinase receptor (Homo sapiens, UniProt Q9UM73, L1196M); assay: Inhibition of purified ALK L1196M mutant (unknown origin) after 60 mins by ELISA kinase assay
[21] = target: T1, ALK tyrosine kinase receptor; assay: Inhibition of ALK phosphorylation in human H3122 cells; format: cell-based
[22] = target: Tyrosine-protein kinase ABL1 (Homo sapiens) (UniProt P00519); assay: Inhibition of purified Abl (unknown origin) at 1 uM after 60 mins by ELISA kinase assay
[23] = target: Ephrin type-A receptor 2 (Homo sapiens) (UniProt P29317); assay: Inhibition of purified EPH-A2 (unknown origin) at 1 uM after 60 mins by ELISA kinase assay
[24] = target: Receptor tyrosine-protein kinase erbB-4 (Homo sapiens) (UniProt Q15303); assay: Inhibition of purified ErbB4 (unknown origin) at 1 uM after 60 mins by ELISA kinase assay
[25] = target: Platelet-derived growth factor receptor alpha (Homo sapiens) (UniProt P16234); assay: Inhibition of purified PDGFRalpha (unknown origin) at 1 uM after 60 mins by ELISA kinase assay
[26] = target: Receptor-type tyrosine-protein kinase FLT3 (Homo sapiens) (UniProt P36888); assay: Inhibition of purified Flt-3 (unknown origin) at 1 uM after 60 mins by ELISA kinase assay
[27] = target: T2, Hepatocyte growth factor receptor; assay: Inhibition of purified c-MET (unknown origin) after 60 mins by ELISA kinase assay
[28] = target: T1, ALK tyrosine kinase receptor; conditions: 1 uM
Description: Inhibition of purified ALK (unknown origin) at 1 uM after 60 mins by ELISA kinase assay

T2 sequence (P08581 whole entry): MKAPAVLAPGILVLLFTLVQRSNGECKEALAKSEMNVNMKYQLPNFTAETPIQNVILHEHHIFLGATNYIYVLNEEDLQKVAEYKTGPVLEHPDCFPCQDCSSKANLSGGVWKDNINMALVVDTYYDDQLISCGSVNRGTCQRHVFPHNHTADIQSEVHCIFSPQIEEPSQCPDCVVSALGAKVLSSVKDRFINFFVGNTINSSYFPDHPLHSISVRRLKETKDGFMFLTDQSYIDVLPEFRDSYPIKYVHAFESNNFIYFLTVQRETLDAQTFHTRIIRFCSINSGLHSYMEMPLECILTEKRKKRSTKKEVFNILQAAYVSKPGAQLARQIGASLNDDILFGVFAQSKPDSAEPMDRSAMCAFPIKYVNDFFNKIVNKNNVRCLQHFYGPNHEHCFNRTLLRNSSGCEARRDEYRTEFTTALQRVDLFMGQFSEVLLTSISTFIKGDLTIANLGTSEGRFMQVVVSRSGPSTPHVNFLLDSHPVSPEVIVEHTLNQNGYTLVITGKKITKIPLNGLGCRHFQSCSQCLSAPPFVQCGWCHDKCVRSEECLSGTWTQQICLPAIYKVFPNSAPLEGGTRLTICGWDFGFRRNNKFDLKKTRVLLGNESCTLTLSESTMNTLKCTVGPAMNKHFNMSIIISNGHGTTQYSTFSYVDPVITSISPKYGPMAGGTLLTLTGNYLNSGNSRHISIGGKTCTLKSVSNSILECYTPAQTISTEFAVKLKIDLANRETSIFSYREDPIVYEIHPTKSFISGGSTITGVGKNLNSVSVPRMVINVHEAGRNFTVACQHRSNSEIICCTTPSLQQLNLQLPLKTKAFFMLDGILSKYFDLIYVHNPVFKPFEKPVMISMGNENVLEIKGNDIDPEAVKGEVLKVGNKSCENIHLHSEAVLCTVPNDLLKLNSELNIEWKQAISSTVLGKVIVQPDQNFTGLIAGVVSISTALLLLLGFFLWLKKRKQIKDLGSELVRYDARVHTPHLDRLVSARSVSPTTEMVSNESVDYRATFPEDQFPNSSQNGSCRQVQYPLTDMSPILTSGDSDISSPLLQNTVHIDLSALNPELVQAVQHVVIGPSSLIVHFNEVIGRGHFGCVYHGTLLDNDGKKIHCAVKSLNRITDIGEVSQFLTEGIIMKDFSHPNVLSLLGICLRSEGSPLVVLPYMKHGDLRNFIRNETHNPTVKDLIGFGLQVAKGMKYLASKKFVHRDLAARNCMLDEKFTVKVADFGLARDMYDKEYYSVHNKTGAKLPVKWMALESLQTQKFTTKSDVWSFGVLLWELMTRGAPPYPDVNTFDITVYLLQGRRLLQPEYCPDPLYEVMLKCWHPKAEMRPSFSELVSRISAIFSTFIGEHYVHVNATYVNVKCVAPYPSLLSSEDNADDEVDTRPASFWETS
Insulin-like growth factor 1 receptor (Homo sapiens), sequence (P08069 31-736 limits assumed): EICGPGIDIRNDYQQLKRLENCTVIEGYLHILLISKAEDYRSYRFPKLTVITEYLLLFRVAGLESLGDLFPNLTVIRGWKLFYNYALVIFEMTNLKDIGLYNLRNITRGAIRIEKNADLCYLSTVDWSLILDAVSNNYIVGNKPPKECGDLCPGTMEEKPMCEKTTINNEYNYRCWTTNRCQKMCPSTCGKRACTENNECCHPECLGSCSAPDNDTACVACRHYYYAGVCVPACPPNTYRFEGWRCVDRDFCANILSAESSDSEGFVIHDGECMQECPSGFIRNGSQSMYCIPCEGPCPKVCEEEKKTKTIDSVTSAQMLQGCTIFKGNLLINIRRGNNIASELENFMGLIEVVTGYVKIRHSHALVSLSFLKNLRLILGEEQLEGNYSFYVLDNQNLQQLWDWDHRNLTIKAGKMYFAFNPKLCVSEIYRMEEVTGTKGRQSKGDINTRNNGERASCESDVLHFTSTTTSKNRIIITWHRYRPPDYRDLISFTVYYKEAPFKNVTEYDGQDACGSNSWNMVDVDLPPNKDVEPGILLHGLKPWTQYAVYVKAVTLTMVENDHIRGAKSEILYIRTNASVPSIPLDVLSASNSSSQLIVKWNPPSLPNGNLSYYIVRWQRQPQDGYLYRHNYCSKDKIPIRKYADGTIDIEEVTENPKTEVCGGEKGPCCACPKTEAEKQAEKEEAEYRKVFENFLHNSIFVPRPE
Insulin-like growth factor 1 receptor (Homo sapiens), sequence (P08069 741-1367 limits assumed): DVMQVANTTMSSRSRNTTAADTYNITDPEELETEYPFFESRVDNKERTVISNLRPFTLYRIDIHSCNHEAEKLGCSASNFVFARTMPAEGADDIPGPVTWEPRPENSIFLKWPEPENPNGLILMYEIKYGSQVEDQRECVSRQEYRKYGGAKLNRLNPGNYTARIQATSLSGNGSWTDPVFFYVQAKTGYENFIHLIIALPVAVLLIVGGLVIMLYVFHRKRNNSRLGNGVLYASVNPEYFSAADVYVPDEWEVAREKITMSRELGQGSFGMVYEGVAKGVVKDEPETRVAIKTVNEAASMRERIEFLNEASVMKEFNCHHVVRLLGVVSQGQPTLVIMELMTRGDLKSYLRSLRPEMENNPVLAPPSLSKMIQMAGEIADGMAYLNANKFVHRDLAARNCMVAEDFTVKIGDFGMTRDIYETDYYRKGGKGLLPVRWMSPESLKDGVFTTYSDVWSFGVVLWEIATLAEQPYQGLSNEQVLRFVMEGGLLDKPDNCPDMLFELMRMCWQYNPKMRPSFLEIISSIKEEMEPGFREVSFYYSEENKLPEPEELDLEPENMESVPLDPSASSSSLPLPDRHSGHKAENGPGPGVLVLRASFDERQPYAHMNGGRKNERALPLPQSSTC
Proto-oncogene tyrosine-protein kinase Src (Homo sapiens), sequence (P12931 2-536 limits assumed): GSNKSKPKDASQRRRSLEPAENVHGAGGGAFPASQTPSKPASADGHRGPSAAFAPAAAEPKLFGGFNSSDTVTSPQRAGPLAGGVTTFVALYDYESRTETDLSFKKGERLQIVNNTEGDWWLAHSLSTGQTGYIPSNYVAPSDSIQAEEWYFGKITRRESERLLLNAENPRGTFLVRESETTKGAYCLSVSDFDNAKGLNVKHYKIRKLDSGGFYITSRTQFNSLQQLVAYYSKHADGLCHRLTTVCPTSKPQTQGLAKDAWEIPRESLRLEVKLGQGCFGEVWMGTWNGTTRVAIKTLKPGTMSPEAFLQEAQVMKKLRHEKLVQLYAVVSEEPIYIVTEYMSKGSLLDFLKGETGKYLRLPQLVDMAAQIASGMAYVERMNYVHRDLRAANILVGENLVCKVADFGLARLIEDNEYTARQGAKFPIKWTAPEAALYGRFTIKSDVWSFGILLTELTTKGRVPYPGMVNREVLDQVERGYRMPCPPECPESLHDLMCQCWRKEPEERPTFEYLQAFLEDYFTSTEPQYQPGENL

IC50 [1]: > 1 µM
SMILES: CC(C)S(=O)(=O)c1ccccc1Nc1nc(Nc2nc(C(=O)N3CC4(CCNCC4)C3)cs2)ncc1Cl

SMILES: CC(C)S(=O)(=O)c1ccccc1Nc1nc(Nc2nc3c(s2)CCN(CC2CCOCC2)CC3)ncc1Cl
inhibition of growth at 1 µM [2]: 59.9%
inhibition of growth at 0.2 µM [3]: -13.7%

SMILES: CC(C)S(=O)(=O)c1ccccc1Nc1nc(Nc2nc3c(s2)CCN(C)CC3)ncc1Cl
inhibition of growth at 1 µM [2]: 67.7%
inhibition of growth at 0.2 µM [3]: 0.15%

IC50 [1]: > 1 µM
SMILES: COC(=O)c1csc(Nc2ncc(Cl)c(Nc3ccccc3S(=O)(=O)C(C)C)n2)n1

SMILES: CC(C)S(=O)(=O)c1ccccc1Nc1nc(Nc2nc(C(=O)N3CC4CCC(C3)O4)cs2)ncc1Cl
inhibition of growth at 1 µM [2]: 63.4%
inhibition of growth at 0.2 µM [3]: 18.4%

SMILES: CC(C)S(=O)(=O)c1ccccc1Nc1nc(Nc2nc3c(s2)CCN(C(=O)CO)CC3)ncc1Cl
inhibition of growth at 1 µM [2]: 80.7%
inhibition of growth at 0.2 µM [3]: 3.7%

IC50 [1]: > 1 µM
SMILES: CCOC(=O)c1csc(Nc2ncc(Cl)c(Nc3ccccc3S(=O)(=O)C(C)C)n2)n1

IC50 [1]: > 1 µM
SMILES: CNC(=O)c1csc(Nc2ncc(Cl)c(Nc3ccccc3S(=O)(=O)C(C)C)n2)n1

IC50 [1]: > 1 µM
SMILES: CC(C)S(=O)(=O)c1ccccc1Nc1nc(Nc2nc(C(=O)O)cs2)ncc1Cl

SMILES: CCOC(=O)N1CCc2nc(Nc3ncc(Cl)c(Nc4ccccc4S(=O)(=O)C(C)C)n3)sc2CC1
inhibition of growth at 1 µM [2]: 16.1%
inhibition of growth at 0.2 µM [3]: 5.5%

IC50 [1]: > 1 µM
SMILES: CCCCOC(=O)c1csc(Nc2ncc(Cl)c(Nc3ccccc3S(=O)(=O)C(C)C)n2)n1

inhibition [4]: 5.6%
inhibition [5]: Dose-dependent effect
inhibition [6]: Dose-dependent effect
inhibition [7]: 77%
inhibition [8]: 52.8%
inhibition [9]: Dose-dependent effect
inhibition [10]: 0%
inhibition [11]: 4.9%
inhibition [12]: 0%
inhibition [13]: 100%
inhibition [14]: 53.5%
inhibition [15]: 40.6%
inhibition [16]: 51.3%
inhibition [17]: 15.8%
inhibition [18]: 69.2%
inhibition [19]: 15.8%
IC50 [20]: 0.024 µM
IC50 [1]: 0.0124 µM
inhibition [21]: Dose-dependent effect
inhibition [22]: 45.6%
inhibition [23]: 23%
inhibition [24]: 33.4%
inhibition [25]: 18%
SMILES: CC(C)S(=O)(=O)c1ccccc1Nc1nc(Nc2nc3c(s2)CCN(C(=O)C2CCOCC2)CC3)ncc1Cl
inhibition of growth at 1 µM [2]: 84.1%
inhibition of growth at 0.2 µM [3]: 23.2%

SMILES: CC(C)S(=O)(=O)c1ccccc1Nc1nc(Nc2nc3c(s2)CCN(CCN2CCOCC2)CC3)ncc1Cl
inhibition of growth at 1 µM [2]: 83.5%
inhibition of growth at 0.2 µM [3]: 19.8%

SMILES: CC(C)S(=O)(=O)c1ccccc1Nc1nc(Nc2nc(C(=O)N3C[C@H]4CN(C)C[C@H]4C3)cs2)ncc1Cl
inhibition of growth at 1 µM [2]: 61.4%
inhibition of growth at 0.2 µM [3]: -0.1%

inhibition [7]: 81.5%
inhibition [26]: 20.5%
inhibition [8]: 5.7%
inhibition [10]: 16.3%
inhibition [11]: 96%
IC50 [27]: 0.02 µM
inhibition [16]: 20.7%
inhibition [28]: 96%
IC50 [1]: 0.0618 µM
inhibition [22]: 73.9%
inhibition [23]: 63.2%
inhibition [24]: 60.1%
SMILES: CNC(=O)c1ccccc1Nc1nc(Nc2nc3c(s2)CCNCC3)ncc1Cl

IC50 [1]: > 1 µM
SMILES: CC(C)S(=O)(=O)c1ccccc1Nc1nc(Nc2nc(C(=O)N3CCCCC3)cs2)ncc1Cl

IC50 [1]: > 1 µM
SMILES: COc1cc(NC(=O)c2csc(Nc3ncc(Cl)c(Nc4ccccc4S(=O)(=O)C(C)C)n3)n2)cc(OC)c1OC

IC50 [1]: > 1 µM
SMILES: CC(C)S(=O)(=O)c1ccccc1Nc1nc(Nc2nc(C(=O)N3CCOCC3)cs2)ncc1Cl

IC50 [1]: > 1 µM
SMILES: CC(C)S(=O)(=O)c1ccccc1Nc1nc(Nc2nc3c(s2)CNCC3)ncc1Cl

IC50 [1]: > 1 µM
SMILES: CC(C)S(=O)(=O)c1ccccc1Nc1nc(Nc2nc3c(s2)CN(C)CC3)ncc1Cl

IC50 [1]: > 1 µM
SMILES: CC(C)S(=O)(=O)c1ccccc1Nc1nc(Nc2ncc(C(=O)N3C[C@H]4CN(C)C[C@H]4C3)s2)ncc1Cl

SMILES: CC(C)S(=O)(=O)c1ccccc1Nc1nc(Nc2nc(C(=O)NCCN3CCOCC3)cs2)ncc1Cl
inhibition of growth at 1 µM [2]: 73.6%
inhibition of growth at 0.2 µM [3]: 29.5%
